The values that follow come from the supplement of paper PMC10307832.

Common to all, as to assay: relative viability (nuclei count vs DMSO), 5 days (fraction); higher = more cells survive
Compound in the test “MK-2206 + AZD7762”: NC1(c2ccc(-c3nc4ccn5c(=O)[nH]nc5c4cc3-c3ccccc3)cc2)CCC1 [MK-2206] + NC(=O)Nc1cc(-c2cccc(F)c2)sc1C(=O)N[C@H]1CCCNC1 [AZD7762] (partner 0.2 µM)
The method in brief:
(§1)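 Cells from lung cancer lines were seeded into 1536-well plates and, one day later, dosed by pin tool. Treatments were either a single drug or a fixed dose of an anchor drug with five library-drug doses (not always all listed) in √10 steps. After 5 days, nuclei were stained in a one-step fixation (final 0.05% Triton X-100, 1% formaldehyde, 1 ug/ml Hoechst) and counted on 4× images, and relative viability is the treated-to-vehicle nuclei ratio, as the median of duplicate plates.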

Compound in the test “MK-2206 + Foretinib”: NC1(c2ccc(-c3nc4ccn5c(=O)[nH]nc5c4cc3-c3ccccc3)cc2)CCC1 [MK-2206] + COc1cc2c(Oc3ccc(NC(=O)C4(C(=O)Nc5ccc(F)cc5)CC4)cc3F)ccnc2cc1OCCCN1CCOCC1 [Foretinib] (partner 0.25 µM)
The method, boiled down: as §1

Compound in the test “MK-2206 + Decitabine”: NC1(c2ccc(-c3nc4ccn5c(=O)[nH]nc5c4cc3-c3ccccc3)cc2)CCC1 [MK-2206] + Nc1ncn([C@H]2C[C@H](O)[C@@H](CO)O2)c(=O)n1 [Decitabine] (partner 2 µM)
The method, boiled down: as §1

Compound in the test “Pictilisib + Crizotinib”: CS(=O)(=O)N1CCN(Cc2cc3nc(-c4cccc5[nH]ncc45)nc(N4CCOCC4)c3s2)CC1 [Pictilisib] + C[C@@H](Oc1cc(-c2cnn(C3CCNCC3)c2)cnc1N)c1c(Cl)ccc(F)c1Cl [Crizotinib] (partner 1 µM)
The method, boiled down: as §1

Compound in the test “MK-2206 + OSI-027”: NC1(c2ccc(-c3nc4ccn5c(=O)[nH]nc5c4cc3-c3ccccc3)cc2)CCC1 [MK-2206] + COc1cccc2cc(-c3nc([C@H]4CC[C@H](C(=O)O)CC4)n4ncnc(N)c34)[nH]c12 [OSI-027] (partner 0.5 µM)
The method, boiled down:
as §1

For the cell line A-427, the relative viability turned out to be 0.751 with MK-2206 + AZD7762 (first compound 0.01 µM); 0.596 with MK-2206 + AZD7762 (first compound 0.03162 µM); 0.598 with MK-2206 + AZD7762 (first compound 0.3162 µM); 0.601 with MK-2206 + AZD7762 (first compound 1 µM); 1.05 in the test with MK-2206 + Foretinib (first compound 0.01 µM); 1.2 in the test with MK-2206 + Foretinib (first compound 0.03162 µM). The relative viability amounted to 1.16 with MK-2206 + Foretinib (first compound 0.3162 µM); 1.15 in the test with MK-2206 + Foretinib (first compound 1 µM); 0.6 in the test with MK-2206 + Decitabine (first compound 0.01 µM); 0.603 with MK-2206 + Decitabine (first compound 0.03162 µM); 0.562 with MK-2206 + Decitabine (first compound 0.3162 µM); 0.567 in the test with MK-2206 + Decitabine (first compound 1 µM). The relative viability in the test with Pictilisib + Crizotinib (first compound 0.02 µM) turned out to be 0.979; in the test with Pictilisib + Crizotinib (first compound 0.06325 µM) it was 0.829; with Pictilisib + Crizotinib (first compound 0.6325 µM) it was 0.908; in the test with Pictilisib + Crizotinib (first compound 2 µM) it was 0.603; with MK-2206 + OSI-027 (first compound 0.01 µM) it was 0.529; in the test with MK-2206 + OSI-027 (first compound 0.03162 µM), 0.47. The relative viability came to 0.439 with MK-2206 + OSI-027 (first compound 0.3162 µM) and 0.372 with MK-2206 + OSI-027 (first compound 1 µM).
For the cell line NCI-H596, the relative viability with MK-2206 + AZD7762 (first compound 0.01 µM) was 1.16; with MK-2206 + AZD7762 (first compound 0.03162 µM), 1.06; in the test with MK-2206 + AZD7762 (first compound 0.3162 µM), 1.05; in the test with MK-2206 + AZD7762 (first compound 1 µM), 1.01; in the test with MK-2206 + Foretinib (first compound 0.01 µM) it was 1.02; with MK-2206 + Foretinib (first compound 0.03162 µM) it was 0.921. The relative viability amounted to 0.677 in the test with MK-2206 + Foretinib (first compound 0.3162 µM); 0.77 in the test with MK-2206 + Foretinib (first compound 1 µM); 1.03 with MK-2206 + Decitabine (first compound 0.01 µM); 1.03 with MK-2206 + Decitabine (first compound 0.03162 µM); 0.99 with MK-2206 + Decitabine (first compound 0.3162 µM); 0.914 in the test with MK-2206 + Decitabine (first compound 1 µM). Moreover, the relative viability with Pictilisib + Crizotinib (first compound 0.02 µM) was 0.91; with Pictilisib + Crizotinib (first compound 0.06325 µM), 1.05; with Pictilisib + Crizotinib (first compound 0.6325 µM), 0.631; with Pictilisib + Crizotinib (first compound 2 µM) it was 0.354; with MK-2206 + OSI-027 (first compound 0.01 µM) it was 0.706; with MK-2206 + OSI-027 (first compound 0.03162 µM) it was 0.887. Also, the relative viability worked out at 0.591 with MK-2206 + OSI-027 (first compound 0.3162 µM) and 0.41 with MK-2206 + OSI-027 (first compound 1 µM).
As for RERF-LC-KJ, the relative viability with MK-2206 + AZD7762 (first compound 0.01 µM) was determined as 0.915; in the test with MK-2206 + AZD7762 (first compound 0.03162 µM), 1.15; with MK-2206 + AZD7762 (first compound 0.3162 µM), 0.84; with MK-2206 + AZD7762 (first compound 1 µM), 1.01; in the test with MK-2206 + Foretinib (first compound 0.01 µM) it was 0.868; with MK-2206 + Foretinib (first compound 0.03162 µM), 0.861. For the same cell line, the relative viability was determined as 0.82 in the test with MK-2206 + Foretinib (first compound 0.3162 µM); 0.77 with MK-2206 + Foretinib (first compound 1 µM); 0.788 with MK-2206 + Decitabine (first compound 0.01 µM); 0.677 in the test with MK-2206 + Decitabine (first compound 0.03162 µM); 0.599 with MK-2206 + Decitabine (first compound 0.3162 µM); 0.62 with MK-2206 + Decitabine (first compound 1 µM). Moreover, the relative viability with Pictilisib + Crizotinib (first compound 0.02 µM) was 0.845; with Pictilisib + Crizotinib (first compound 0.06325 µM) it was 0.875; with Pictilisib + Crizotinib (first compound 0.6325 µM), 0.816; with Pictilisib + Crizotinib (first compound 2 µM) it was 0.635; with MK-2206 + OSI-027 (first compound 0.01 µM) it was 0.647; with MK-2206 + OSI-027 (first compound 0.03162 µM) it was 0.531. Moreover, the results for the relative viability with MK-2206 + OSI-027 (first compound 0.3162 µM) and in the test with MK-2206 + OSI-027 (first compound 1 µM) were 0.417 and 0.381, respectively.
As for NCI-H647, the relative viability turned out to be 0.46 with MK-2206 + AZD7762 (first compound 0.01 µM); 0.356 in the test with MK-2206 + AZD7762 (first compound 0.03162 µM); 0.521 with MK-2206 + AZD7762 (first compound 0.3162 µM); 0.473 in the test with MK-2206 + AZD7762 (first compound 1 µM); 1.1 with MK-2206 + Foretinib (first compound 0.01 µM); 1.12 in the test with MK-2206 + Foretinib (first compound 0.03162 µM). Further, the relative viability with MK-2206 + Foretinib (first compound 0.3162 µM) is 1.06; in the test with MK-2206 + Foretinib (first compound 1 µM), 1.2; with MK-2206 + Decitabine (first compound 0.01 µM), 0.39; with MK-2206 + Decitabine (first compound 0.03162 µM), 0.365; with MK-2206 + Decitabine (first compound 0.3162 µM) it was 0.414; with MK-2206 + Decitabine (first compound 1 µM), 0.408. Besides, the relative viability in the test with Pictilisib + Crizotinib (first compound 0.02 µM) is 1.16; with Pictilisib + Crizotinib (first compound 0.06325 µM), 1.18; with Pictilisib + Crizotinib (first compound 0.6325 µM), 0.884; with Pictilisib + Crizotinib (first compound 2 µM) it was 0.524; with MK-2206 + OSI-027 (first compound 0.01 µM), 0.573; in the test with MK-2206 + OSI-027 (first compound 0.03162 µM), 0.584. For the same cell line, the relative viability with MK-2206 + OSI-027 (first compound 0.3162 µM) was determined as 0.469; with MK-2206 + OSI-027 (first compound 1 µM), 0.641.
NCI-H1734: the relative viability with MK-2206 + AZD7762 (first compound 0.01 µM) came out at 0.576; in the test with MK-2206 + AZD7762 (first compound 0.03162 µM), 0.244; in the test with MK-2206 + AZD7762 (first compound 0.3162 µM), 0.471; with MK-2206 + AZD7762 (first compound 1 µM), 0.399; with MK-2206 + Foretinib (first compound 0.01 µM) it was 1; with MK-2206 + Foretinib (first compound 0.03162 µM), 0.994. Moreover, the relative viability with MK-2206 + Foretinib (first compound 0.3162 µM) amounted to 0.682; with MK-2206 + Foretinib (first compound 1 µM) it was 0.64; with MK-2206 + Decitabine (first compound 0.01 µM), 0.527; in the test with MK-2206 + Decitabine (first compound 0.03162 µM) it was 0.516; with MK-2206 + Decitabine (first compound 0.3162 µM) it was 0.469; with MK-2206 + Decitabine (first compound 1 µM), 0.447. For the same cell line, the relative viability with Pictilisib + Crizotinib (first compound 0.02 µM) worked out at 0.739; in the test with Pictilisib + Crizotinib (first compound 0.06325 µM), 0.648; with Pictilisib + Crizotinib (first compound 0.6325 µM), 0.43; in the test with Pictilisib + Crizotinib (first compound 2 µM), 0.296; in the test with MK-2206 + OSI-027 (first compound 0.01 µM), 0.603; in the test with MK-2206 + OSI-027 (first compound 0.03162 µM), 0.572. The relative viability in the test with MK-2206 + OSI-027 (first compound 0.3162 µM) turned out to be 0.366; with MK-2206 + OSI-027 (first compound 1 µM), 0.356.
